Measurements reported in article PMC8878452, “A Tale of Toxin Promiscuity: The Versatile Pharmacological Effects of Hcr 1b-2 Sea Anemone Peptide on Voltage-Gated Ion Channels” (Marine Drugs, 2022).
“Also recorded” adds a separate entry of the source. Bridges are numbered along the chain shown (N, C = ends). Where no end group is shown, it is not given here.

Columns and labels:
rKv1.2 = experiment: TEVC, Kv1.2 in Xenopus oocytes; type: cell-based, rat
Source text: (§1) For the expression of Kv channels (rKv1.1, rKv1.2, rKv1.3, rKv1.4, rK1.5, rKv1.6, hKv2.1, hKv3.1, rKv4.2, hKv7.1, hKv7.2/7.3, hKv7.4, KQT1 (from the roundworm Caenorhabditis elegans), hKv10.1 (hEAG1), hKv11.1 (hERG1), and Shaker, from Drosophila melanogaster), Nav channels (rNav1.1, rNav1.2, rNav1.3, rNav1.4, hNav1.5, mNav1.6, hNav1.7, hNav1.8, and BgNav (from the cockroach Blattella germanica), as well as the hβ1 and rβ1 subunits, and Cav channels (rCav3.1, hCav3.2, and rCav3.3) in Xenopus oocytes, the linearized plasmids were transcribed using the T7 or SP6 mMESSAGEmMACHINE transcription kit (Ambion, Austin, TX, USA). Mature female animals were purchased from Nasco (Fort Atkinson, WI, USA) and were housed in the Aquatic Facility (KU Leuven) in compliance with the regulations of the European Union (EU) concerning the welfare of laboratory animals as declared in Directive 2010/63/EU. The use of X. laevis oocytes was approved by the Animal Ethics Committee of the KU Leuven, with the license number P186/2019.
(§2) Stage V–VI oocytes were collected from anesthetized female X. laevis frog as previously described, with the frogs anesthetized by placement in a 0.1% tricaine solution (amino benzoic acid ethyl ester; Merck, Kenilworth, NJ, USA). Oocyte microinjection was performed using a microinjector (Drummond Scientifc®, Broomall, PA, USA), with a programmed cRNA injection volume of 4–50 nL, depending on channel subtype. The oocytes were incubated in ND96 solution (96 mM NaCl; 2 mM KCl; 1.8 mM CaCl2; 2 mM MgCl2, and 5 mM HEPES, pH 7.4), supplemented with 50 mg/L of gentamicin sulfate.
(§3) Electrophysiological measurements were performed at room temperature (18–22 °C) using the two-electrode voltage-clamp (TEVC) technique. Data were obtained using a GeneClamp 500 amplifier (Axon Instruments®, Burlingame, CA, USA) and Clampex9 software (Axon Instruments®, USA) was responsible for data acquisition and storage. Glass micropipettes were produced using glass capillaries (borosilicate WPI 1B120-6) and drawn in a WPI (World Precision Instruments®, Sarasota, FL, USA) manual stretcher. The bath and perfusion solutions were either the previously described ND96 (Nav and Kv channels) or calcium-free ND96 supplemented with 10 mM BaCl2 (Cav channels).
(§4) Whole-cell currents of oocytes were recorded 1 to 3 days after RNA injection. The current and voltage electrodes were filled with 3 M KCl, and their resistance was adjusted from 1.0 to 2.5 MΩ. […] The current–voltage relationships were determined by 50 ms step depolarizations between −90 and +65 mV using 5 or 10 mV increments. All electrophysiological data were analyzed following the procedures described by Peigneur et al., 2012 [20].
(§5) All values were expressed as means ± SEM. […]

rKv1.4 = experiment: TEVC, Kv1.4 in Xenopus oocytes; type: cell-based, rat
Source text: as §1, §2, §3
(§6) Whole-cell currents of oocytes were recorded 1 to 3 days after RNA injection. The current and voltage electrodes were filled with 3 M KCl, and their resistance was adjusted from 1.0 to 2.5 MΩ. Currents were sampled at 20 kHz (Nav channels) and 10 kHz (Kv and Cav channels) and filtered using a four-pole Bessel low-pass Bessel filter at 1 kHz for sodium and […] for potassium and calcium, except for the hERG ion channel in which the currents were filtered at 1 kHz. Leak subtraction was performed using a P/4 protocol. Kv1.x currents were evoked by 500 ms depolarizations to 0 mV, followed by a 500 ms pulse to −50 mV from a holding potential of −90 mV. Kv2.1, Kv3.1, Kv4.2, Kv7.x, and KQT1 currents were elicited by 700 ms pulses to +20 mV from a holding potential of −90 mV. Current traces of the hERG1 channel were elicited by applying a +40 mV prepulse for 2 s, followed by a step of −120 mV for 2 s. […] The current–voltage relationships were determined by 50 ms step depolarizations between −90 and +65 mV using 5 or 10 mV increments. All electrophysiological data were analyzed following the procedures described by Peigneur et al., 2012 [20].
as §5

rKv1.6 = experiment: TEVC, Kv1.6 in Xenopus oocytes; type: cell-based, rat; details: 1 µM, n ≥ 3
Source text: as §1, with “P186/2019. […]” for “P186/2019.”
as §4, with “injection.” for “injection. The current and voltage electrodes were filled with 3 M KCl, and their resistance was adjusted from 1.0 to 2.5 MΩ.”
as §5

rNav1.2 = experiment: TEVC, Nav1.2 in Xenopus oocytes; type: cell-based, rat
Source text: as §1, §2, §3
(§7) Whole-cell currents of oocytes were recorded 1 to 3 days after RNA injection. The current and voltage electrodes were filled with 3 M KCl, and their resistance was adjusted from 1.0 to 2.5 MΩ. Currents were sampled at 20 kHz (Nav channels) and 10 kHz (Kv and Cav channels) and filtered using a four-pole Bessel low-pass Bessel filter at 1 kHz for sodium and […] for potassium and calcium, except for the hERG ion channel in which the currents were filtered at 1 kHz. Leak subtraction was performed using a P/4 protocol. Kv1.x currents were evoked by 500 ms depolarizations to 0 mV, followed by a 500 ms pulse to −50 mV from a holding potential of −90 mV. Kv2.1, Kv3.1, Kv4.2, Kv7.x, and KQT1 currents were elicited by 700 ms pulses to +20 mV from a holding potential of −90 mV. Current traces of the hERG1 channel were elicited by applying a +40 mV prepulse for 2 s, followed by a step of −120 mV for 2 s. Current traces of hEAG1 were elicited by a 2 s depolarization to 0 mV from a holding potential of −90 mV. Sodium current traces were evoked by a 100 ms depolarization to 0 mV. For Cav channels, current traces were elicited by 700 ms depolarizations to −20 mV from a holding potential of −90 mV. The current–voltage relationships were determined by 50 ms step depolarizations between −90 and +65 mV using 5 or 10 mV increments. All electrophysiological data were analyzed following the procedures described by Peigneur et al., 2012 [20].
(§8) All values were expressed as means ± SEM. Differences in ionic currents between the control and toxin conditions were compared by a one-way ANOVA, followed by Dunnett’s multiple comparisons test. Differences were considered statistically significant when […].

rNav1.4 = experiment: TEVC, Nav1.4 in Xenopus oocytes; type: cell-based, rat
Source text: as §1, §2, §3, §6, §5

hNav1.5 = experiment: TEVC, Nav1.5 in Xenopus oocytes; type: cell-based, human
Source text: as §1, §2, §3, §7, §8

rCav3.1 = experiment: TEVC, Cav3.1 in Xenopus oocytes; type: cell-based, rat
Source text: as §1, §2, §3, §4, §5

rCav3.3 = experiment: TEVC, Cav3.3 in Xenopus oocytes; type: cell-based, rat
Source text: as §1, §2, §3, §7, §8

[1] = test system: T-type voltage-gated calcium channels; experiment: TEVC panel of three T-type Cav channels, voltage dependence; type: cell-based; details: 1 µM vs control
Source text: as §1, with “P186/2019. […]” for “P186/2019.”
as §4, with “injection.” for “injection. The current and voltage electrodes were filled with 3 M KCl, and their resistance was adjusted from 1.0 to 2.5 MΩ.”
as §5

ASIC1a = details: cited from earlier work
Source text: (§9) Hcr 1b-2, the major peptide, presents 41 residues and belongs to the class 1b of sea anemone toxins, with a molecular mass of 4518.9 Da (Uniprot accession number C0HL52).

ASIC3 = details: cited from earlier work
Source text: as §9

[2] = 1 µM, TEVC, ND96 pH 7.4, 18–22 °C, n ≥ 3
[3] = 1 µM, 100 ms depolarization to 0 mV, mean ± SEM, n ≥ 3
[4] = 1 µM vs control (ND96 Ca2+ free)

Q: Which results are given for “GTPCKCHGYIGVYWFMLAGCPNGYGYNLSCPYFLGICCVKK (disulfide 4-37, 6-30, 20-38 (inferred)) [Hcr 1b-2]”?
A: gating-modifier effect (voltage-current relationship), Kv1.2 (rKv1.2; 1 µM): non-significant gating-modifier effect; Shift in Vhalf activation, Kv1.2 (rKv1.2; 1 µM vs control (ND96)): −4.9 mV; effect on potassium current, Kv1.2 (rKv1.2; [2]): activation; Vhalf activation, Kv1.2 (rKv1.2; 1 µM, control (ND96) −24.7 ± 0.7, mean ± SEM): −29.6 ± 0.89 mV; gating-modifier effect (voltage-current relationship), Kv1.4 (rKv1.4; 1 µM): non-significant gating-modifier effect; also recorded: negligible shift in the midpoint of activation; Shift in Vhalf activation, Kv1.4 (rKv1.4; 1 µM vs control (ND96)): 2.5 mV; activity (inhibition of current), Kv1.4 (rKv1.4; 1 µM, 500 ms depolarization to 0 mV from −90 mV, mean ± SEM, n ≥ 3): 46.9 ± 4.3%; effect on potassium current, Kv1.4 (rKv1.4; [2]): inhibition; Vhalf activation, Kv1.4 (rKv1.4; 1 µM, control (ND96) 7.5 ± 0.7, mean ± SEM): 10.0 ± 0.5 mV; activity (inhibition of current), Kv1.6 (rKv1.6; 500 ms depolarization to 0 mV from −90 mV, mean ± SEM): 31.5 ± 6.7%; effect on potassium current, Kv1.6 (rKv1.6; TEVC, ND96 pH 7.4, 18–22 °C): inhibition; effect on activation or inactivation, Nav1.2 (rNav1.2; 1 µM): no significant effect; Shift in Vhalf activation, Nav1.2 (rNav1.2; 1 µM vs control (ND96)): 3.7 mV; Shift in Vhalf inactivation, Nav1.2 (rNav1.2; 1 µM vs control (ND96)): −1.1 mV; reduction of peak amplitude (INa), Nav1.2 (rNav1.2; [3]): 52.8 ± 7.9%; Vhalf activation, Nav1.2 (rNav1.2; 1 µM, control (ND96) −19.2 ± 0.1, mean ± SEM, n ≥ 3): −15.5 ± 0.2 mV; Vhalf inactivation, Nav1.2 (rNav1.2; 1 µM, control (ND96) −33.6 ± 0.4, mean ± SEM, n ≥ 3): −34.7 ± 0.6 mV; Shift in Vhalf activation, Nav1.4 (rNav1.4; 1 µM vs control (ND96)): 5.5 mV; Shift in Vhalf inactivation, Nav1.4 (rNav1.4; 1 µM vs control (ND96)): −1.7 mV; reduction of peak amplitude (INa), Nav1.4 (rNav1.4; [3]): 29.1 ± 3.0%; Vhalf activation, Nav1.4 (rNav1.4; 1 µM, control (ND96) −24.4 ± 0.1, mean ± SEM, n ≥ 3): −18.9 ± 0.1 mV; Vhalf inactivation, Nav1.4 (rNav1.4; 1 µM, control (ND96) −48.5 ± 0.3, mean ± SEM, n ≥ 3): −50.2 ± 0.2 mV; effect on activation or inactivation, Nav1.5 (hNav1.5; 1 µM): no significant effect; Shift in Vhalf activation, Nav1.5 (hNav1.5; 1 µM vs control (ND96)): 3.8 mV; Shift in Vhalf inactivation, Nav1.5 (hNav1.5; 1 µM vs control (ND96)): −3.2 mV; reduction of peak amplitude (INa), Nav1.5 (hNav1.5; [3]): 41.6 ± 5.9%; Vhalf activation, Nav1.5 (hNav1.5; 1 µM, control (ND96) −38.5 ± 0.1, mean ± SEM, n ≥ 3): −34.7 ± 0.1 mV; Vhalf inactivation, Nav1.5 (hNav1.5; 1 µM, control (ND96) −66.0 ± 0.2, mean ± SEM, n ≥ 3): −69.2 ± 0.2 mV; Shift in Vhalf activation, Cav3.1 (rCav3.1; [4]): −0.2 mV; Shift in Vhalf inactivation, Cav3.1 (rCav3.1; [4]): −2.3 mV; Vhalf activation, Cav3.1 (rCav3.1; 1 µM, control (ND96 Ca2+ free) −41.0 ± 0.1, mean ± SEM, n ≥ 3): −41.2 ± 0.1 mV; Vhalf inactivation, Cav3.1 (rCav3.1; 1 µM, control (ND96 Ca2+ free) −58.4 ± 0.2, mean ± SEM, n ≥ 3): −60.7 ± 0.2 mV; Shift in Vhalf activation, Cav3.3 (rCav3.3; [4]): −2.2 mV; Shift in Vhalf inactivation, Cav3.3 (rCav3.3; [4]): −2.1 mV; higher activity on Cav3.3 than on Cav3.1 (rCav3.3; 1 µM, Cav3.3 vs Cav3.1): 9 fold; higher activity on Cav3.3 than on Cav3.2 (rCav3.3; 1 µM, Cav3.3 vs Cav3.2): 1.6 fold; inhibition, Cav3.3 (rCav3.3; 1 µM, calcium-free ND96 + 10 mM BaCl2, 700 ms depolarization to −20 mV from −90 mV, mean ± SEM, n ≥ 3): 58.9 ± 9.4%; Vhalf activation, Cav3.3 (rCav3.3; 1 µM, control (ND96 Ca2+ free) −41.7 ± 0.4, mean ± SEM, n ≥ 3): −43.9 ± 0.5 mV; Vhalf inactivation, Cav3.3 (rCav3.3; 1 µM, control (ND96 Ca2+ free) −47.6 ± 0.2, mean ± SEM, n ≥ 3): −49.7 ± 0.3 mV; changes in voltage–current relationship, Cav3.1–3.3 activation and inactivation [1]: insignificant changes; IC50 (ASIC1a): 4.8 ± 0.3 µM; IC50 (ASIC3): 15.9 ± 1.1 µM
